Patent publication US8247377B2, “Non-steroidal glucocorticoid inhibitors and their use in treating inflammation, allergy and auto-immune conditions” (Glaxo Group Limited, priority 2006, dated 2012)

What follows are compounds tested against T1, progesterone receptor (Homo sapiens, UniProt P06401) (assay: Assay for progesterone receptor activity (CV-1 cells, PRb-BacMam/MMTV-BacMam)). Conditions: CV-1 cells transduced with PRb-BacMam and MMTV-BacMam; read-out: pEC50 progesterone receptor activity (converted).
T1 construct: expressed in transfected cells; host or cells: CV-1 cells transduced with PRb-BacMam and MMTV-BacMam
T1 sequence (P06401 1-933): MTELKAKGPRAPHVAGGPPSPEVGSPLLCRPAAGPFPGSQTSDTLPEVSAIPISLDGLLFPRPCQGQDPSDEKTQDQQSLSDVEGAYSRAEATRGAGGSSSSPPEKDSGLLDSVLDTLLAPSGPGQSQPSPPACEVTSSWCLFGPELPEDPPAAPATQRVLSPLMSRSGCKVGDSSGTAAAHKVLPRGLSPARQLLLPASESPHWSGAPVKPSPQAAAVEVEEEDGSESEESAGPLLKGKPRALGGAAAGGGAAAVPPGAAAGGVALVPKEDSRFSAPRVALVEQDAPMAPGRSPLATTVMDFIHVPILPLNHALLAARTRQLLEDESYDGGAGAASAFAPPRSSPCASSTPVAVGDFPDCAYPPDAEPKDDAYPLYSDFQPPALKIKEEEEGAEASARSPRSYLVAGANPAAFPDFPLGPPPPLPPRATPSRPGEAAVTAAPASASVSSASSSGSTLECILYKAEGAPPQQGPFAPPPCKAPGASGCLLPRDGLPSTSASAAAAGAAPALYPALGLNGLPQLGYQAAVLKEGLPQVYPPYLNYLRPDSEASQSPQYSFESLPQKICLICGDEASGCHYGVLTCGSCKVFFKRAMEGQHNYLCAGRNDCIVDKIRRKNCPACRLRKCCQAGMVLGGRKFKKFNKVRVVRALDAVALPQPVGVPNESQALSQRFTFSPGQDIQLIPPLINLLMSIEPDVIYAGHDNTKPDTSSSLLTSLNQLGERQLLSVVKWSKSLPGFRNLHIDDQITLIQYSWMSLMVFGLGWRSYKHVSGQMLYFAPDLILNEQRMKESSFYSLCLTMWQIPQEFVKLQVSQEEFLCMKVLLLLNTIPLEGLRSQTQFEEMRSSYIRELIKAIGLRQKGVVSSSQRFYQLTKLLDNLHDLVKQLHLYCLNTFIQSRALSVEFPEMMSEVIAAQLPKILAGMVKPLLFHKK
Assay type: cell-based
Summary of the method: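 CV-1 cells co-transduced with PRb-BacMam and MMTV-BacMam (10% each), seeded onto compounds in DMEM with 10% serum. After 24 h, luminescence was read with Steadylite. pEC50 values were estimated from dose-response curves.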

Row | Structure (SMILES) | EC50
1 | CCN(CC(O)(CNC(=O)c1cnn(-c2ccc(F)cc2)c1N)C(F)(F)F)C(=O)c1c(Cl)cccc1OC(F)F (racemic) [Example 25 (racemic), 5-amino-N-(2-{[({2-chloro-6-[(difluoromethyl)oxy]phenyl}carbonyl)(ethyl)amino]methyl}-3,3,3-trifluoro-2-hydroxypropyl)-1-(4-fluorophenyl)-1H-pyrazole-4-carboxamide] | > 1000 nM
2 | Nc1c(C(=O)NCC(O)(CNC(=O)c2c(F)cccc2Br)C(F)(F)F)cnn1-c1ccc(F)cc1 (single isomer, unassigned) [Example 13 Enantiomer 1, 5-Amino-N-[2-({[(2-bromo-6-fluorophenyl)carbonyl]amino}methyl)-3,3,3-trifluoro-2-hydroxypropyl]-1-(4-fluorophenyl)-1H-pyrazole-4-carboxamide] | > 1000 nM
3 | Nc1c(C(=O)NCC(O)(CNC(=O)c2c(Cl)cccc2OC(F)F)C(F)(F)F)cnn1-c1ccc(F)cc1 (single isomer, unassigned) [Example 14 Enantiomer 1, 5-Amino-N-(2-{[({2-chloro-6-[(difluoromethyl)oxy]phenyl}carbonyl)amino]methyl}-3,3,3-trifluoro-2-hydroxypropyl)-1-(4-fluorophenyl)-1H-pyrazole-4-carboxamide] | > 1000 nM
4 | CCN(CC(O)(CNC(=O)c1cnn(-c2c(F)cccc2F)c1N)C(F)(F)F)C(=O)c1c(F)cccc1F (racemic) [Example 37 (racemic), 5-amino-1-(2,6-difluorophenyl)-N-(2-{[[(2,6-difluorophenyl)carbonyl](ethyl)amino]methyl}-3,3,3-trifluoro-2-hydroxypropyl)-1H-pyrazole-4-carboxamide] | > 1000 nM
5 | Nc1c(C(=O)NCC(O)(CNC(=O)c2c(F)cccc2C(F)(F)F)C(F)(F)F)cnn1-c1ccc(F)cc1 (racemic) [Example 19 (racemic), 5-amino-1-(4-fluorophenyl)-N-{3,3,3-trifluoro-2-[({[2-fluoro-6-(trifluoromethyl)phenyl]carbonyl}amino)methyl]-2-hydroxypropyl}-1H-pyrazole-4-carboxamide] | > 1000 nM
6 | Nc1c(C(=O)NCC(O)(CNC(=O)c2c(Cl)cccc2C(F)(F)F)C(F)(F)F)cnn1-c1ccc(F)cc1 (single isomer, unassigned) [Example 44 Enantiomer 1, 5-Amino-N-{2-[({[2-chloro-6-(trifluoromethyl)phenyl]carbonyl}amino)methyl]-3,3,3-trifluoro-2-hydroxypropyl}-1-(4-fluorophenyl)-1H-pyrazole-4-carboxamide] | > 1000 nM
7 | Nc1c(C(=O)NCC(O)(CNC(=O)c2c(F)cccc2Br)C(F)(F)F)cnn1-c1ccc(F)cc1 (racemic) [Example 13 (racemic), 5-Amino-N-[2-({[(2-bromo-6-fluorophenyl)carbonyl]amino}methyl)-3,3,3-trifluoro-2-hydroxypropyl]-1-(4-fluorophenyl)-1H-pyrazole-4-carboxamide] | > 1000 nM
8 | CCN(CC(O)(CNC(=O)c1cnn(-c2ccc(F)cc2)c1N)C(F)(F)F)C(=O)c1c(F)cccc1Cl (racemic) [Example 4 (racemic), 5-Amino-N-(2-{[[(2-chloro-6-fluorophenyl)carbonyl](ethyl)amino]methyl}-3,3,3-trifluoro-2-hydroxypropyl)-1-(4-fluorophenyl)-1H-pyrazole-4-carboxamide] | > 1000 nM
9 | Nc1c(C(=O)NCC(O)(CN(CCF)C(=O)c2c(Cl)cccc2Br)C(F)(F)F)cnn1-c1ccc(F)cc1 (racemic) [Example 30 (racemic), 5-amino-N-(2-{[[(2-bromo-6-chlorophenyl)carbonyl](2-fluoroethyl)amino]methyl}-3,3,3-trifluoro-2-hydroxypropyl)-1-(4-fluorophenyl)-1H-pyrazole-4-carboxamide] | > 1000 nM
10 | Nc1c(C(=O)NCC(O)(CNC(=O)c2c(Br)cccc2C(F)(F)F)C(F)(F)F)cnn1-c1ccc(F)cc1 (racemic) [Example 45 (racemic), 5-Amino-N-{2-[({[2-bromo-6-(trifluoromethyl)phenyl]carbonyl}amino)methyl]-3,3,3-trifluoro-2-hydroxypropyl}-1-(4-fluorophenyl)-1H-pyrazole-4-carboxamide] | > 1000 nM
11 | CCN(CC(O)(CNC(=O)c1cnn(-c2ccc(F)cc2)c1N)C(F)(F)F)C(=O)c1c(F)cccc1C(F)(F)F (racemic) [Example 23 (racemic), 5-amino-N-{2-[(ethyl{[2-fluoro-6-(trifluoromethyl)phenyl]carbonyl}amino)methyl]-3,3,3-trifluoro-2-hydroxypropyl}-1-(4-fluorophenyl)-1H-pyrazole-4-carboxamide] | > 1000 nM
12 | Nc1c(C(=O)NCC(O)(CNC(=O)c2c(F)cccc2Cl)C(F)(F)F)cnn1-c1ccc(F)cc1 (racemic) [Example 7 (racemic), 5-Amino-N-[2-({[(2-chloro-6-fluorophenyl)carbonyl]amino}methyl)-3,3,3-trifluoro-2-hydroxypropyl]-1-(4-fluorophenyl)-1H-pyrazole-4-carboxamide] | > 1000 nM
13 | CCN(CC(O)(CNC(=O)c1cnn(-c2ccc(F)cc2)c1N)C(F)(F)F)C(=O)c1c(Cl)cccc1Cl (racemic) [Example 2 (racemic), 5-Amino-N-(2-{[[(2,6-dichlorophenyl)carbonyl](ethyl)amino]methyl}-3,3,3-trifluoro-2-hydroxypropyl)-1-(4-fluorophenyl)-1H-pyrazole-4-carboxamide] | > 1000 nM
14 | CN(CC(O)(CNC(=O)c1cnn(-c2ccc(F)cc2)c1N)C(F)(F)F)C(=O)c1c(F)cccc1Cl (racemic) [Example 9 (racemic), 5-Amino-N-(2-{[[(2-chloro-6-fluorophenyl)carbonyl](methyl)amino]methyl}-3,3,3-trifluoro-2-hydroxypropyl)-1-(4-fluorophenyl)-1H-pyrazole-4-carboxamide] | > 1000 nM
15 | Nc1c(C(=O)NCC(O)(CNC(=O)c2c(Br)cccc2Br)C(F)(F)F)cnn1-c1ccc(F)cc1 (racemic) [Example 11 (racemic), 5-Amino-N-[2-({[(2,6-dibromophenyl)carbonyl]amino}methyl)-3,3,3-trifluoro-2-hydroxypropyl]-1-(4-fluorophenyl)-1H-pyrazole-4-carboxamide] | > 1000 nM
16 | Nc1c(C(=O)NCC(O)(CNC(=O)c2c(C(F)(F)F)cccc2C(F)(F)F)C(F)(F)F)cnn1-c1ccc(F)cc1 (racemic) [Example 15 (racemic), 5-amino-N-{2-[({[2,6-bis(trifluoromethyl)phenyl]carbonyl}amino)methyl]-3,3,3-trifluoro-2-hydroxypropyl}-1-(4-fluorophenyl)-1H-pyrazole-4-carboxamide] | > 1000 nM
17 | CCN(CC(O)(CNC(=O)c1cnn(-c2cccc(F)c2)c1N)C(F)(F)F)C(=O)c1c(F)cccc1F (racemic) [Example 38 (racemic), 5-amino-N-(2-{[[(2,6-difluorophenyl)carbonyl](ethyl)amino]methyl}-3,3,3-trifluoro-2-hydroxypropyl)-1-(3-fluorophenyl)-1H-pyrazole-4-carboxamide] | > 1000 nM
18 | CCN(CC(O)(CNC(=O)c1cnn(-c2ccc(F)cc2)c1N)C(F)(F)F)C(=O)c1c(C(F)(F)F)cccc1C(F)(F)F (racemic) [Example 27 (racemic), 5-amino-N-(2-{[{[2,6-bis(trifluoromethyl)phenyl]carbonyl}(ethyl)amino]methyl}-3,3,3-trifluoro-2-hydroxypropyl)-1-(4-fluorophenyl)-1H-pyrazole-4-carboxamide] | > 1000 nM
19 | Nc1c(C(=O)NCC(O)(CNC(=O)c2c(C(F)F)cccc2C(F)F)C(F)(F)F)cnn1-c1ccc(F)cc1 (racemic) [Example 43 (racemic), 5-Amino-N-{2-[({[2,6-bis(difluoromethyl)phenyl]carbonyl}amino)methyl]-3,3,3-trifluoro-2-hydroxypropyl}-1-(4-fluorophenyl)-1H-pyrazole-4-carboxamide] | > 1000 nM
20 | CCN(CC(O)(CNC(=O)c1cnn(-c2ccc(Cl)cc2)c1N)C(F)(F)F)C(=O)c1c(F)cccc1F (racemic) [Example 39 (racemic), 5-amino-1-(4-chlorophenyl)-N-(2-{[[(2,6-difluorophenyl)carbonyl](ethyl)amino]methyl}-3,3,3-trifluoro-2-hydroxypropyl)-1H-pyrazole-4-carboxamide] | > 1000 nM
21 | CCN(CC(O)(CNC(=O)c1cnn(-c2ccccc2F)c1N)C(F)(F)F)C(=O)c1c(F)cccc1F (racemic) [Example 42 (racemic), 5-amino-N-(2-{[[(2,6-difluorophenyl)carbonyl](ethyl)amino]methyl}-3,3,3-trifluoro-2-hydroxypropyl)-1-(2-fluorophenyl)-1H-pyrazole-4-carboxamide] | > 1000 nM
